Test results as given in ChEMBL document CHEMBL5050850, “Compositions and methods of using the same for treatment of neurodegenerative and mitochondrial disease” (2020).
Converted amounts (≈) assume the structure as drawn.

Assays:
[1] = Induction of mitophagy in human HeLa MKYP cells treated with FCCP/oligomycin for 6 hrs and measured by FACS analysis; format: functional, cell-based
[2] = Kidney concentration in mouse at 10 mg/kg, po measured at 0.5 hrs; format: ADME, organism-based; details: read-out: Drug uptake
[3] = AUC (extrapolated) in mouse at 1 mg/kg, iv; format: ADME, organism-based; details: in vivo
[4] = Kidney concentration in mouse at 50 mg/kg, po measured at 2 hrs; format: ADME, organism-based; details: read-out: Drug uptake
[5] = Half-life in mouse at 10 mg/kg, po; format: ADME, organism-based; details: in vivo
[6] = AUC in mouse at 50 mg/kg, po; format: ADME, organism-based; set-up: dose 50 mg/kg; details: in vivo
[7] = Kidney concentration in mouse at 10 mg/kg, po measured at 1 hr; format: ADME, organism-based; details: read-out: Drug uptake
[8] = Ratio of highest compound concentration with no observable mitotoxicity to EC50 of compound to induce mitophagy in human HeLa MKYP cells; format: functional
[9] = Cmax in mouse at 10 mg/kg, po; format: ADME, organism-based; set-up: route oral, dose 10 mg/kg; details: in vivo
[10] = Plasma concentration in mouse at 10 mg/kg, po measured at 0.5 hrs; format: ADME, organism-based
HeLa [11] = assay: Cytotoxicity against human HeLa MKYP cells assessed as percentage of DAPI-positive cells at 50 uM and measured by DAPI staining method; format: toxicity, cell-based
[12] = Observed AUC in mouse at 1 mg/kg, iv; format: ADME, organism-based; set-up: dose 1 mg/kg; details: in vivo
[13] = AUC in mouse at 1 mg/kg, iv; format: ADME, organism-based; set-up: dose 1 mg/kg; details: in vivo
[14] = Cmax in mouse at 50 mg/kg, po; format: ADME, organism-based; set-up: route oral, dose 50 mg/kg; details: in vivo
[15] = Brain concentration in mouse at 10 mg/kg, po measured at 2 hrs; format: ADME, organism-based; details: read-out: Drug uptake
[16] = Apparent volume of distribution in rat at 10 mg/kg, po; format: ADME, organism-based; details: in vivo
[17] = MRT (infinity) in rat at 1 mg/kg, iv; format: ADME, organism-based; details: in vivo
[18] = Plasma concentration in mouse at 10 mg/kg, po measured at 1 hr; format: ADME, organism-based
[19] = Plasma concentration in mouse at 10 mg/kg, po measured at 2 hrs; format: ADME, organism-based
[20] = AUC (extrapolated) in rat at 1 mg/kg, iv; format: ADME, organism-based; details: in vivo
HeLa [21] = assay: Cytotoxicity against human HeLa MKYP cells assessed as cell death at 25 uM and measured DAPI staining method assay relative to control; format: toxicity, cell-based
[22] = MRT (infinity) in mouse at 10 mg/kg, po; format: ADME, organism-based; details: in vivo
[23] = Cmax in mouse at 1 mg/kg, iv; format: ADME, organism-based; set-up: route intravenous, dose 1 mg/kg; details: in vivo
[24] = Initial plasma concentration in mouse at 10 mg/kg, po; format: ADME, organism-based; details: in vivo
[25] = Solubility of compound in PBS; format: physicochemical
[26] = AUC in mouse at 10 mg/kg, po; format: ADME, organism-based; set-up: dose 10 mg/kg; details: in vivo
[27] = Plasma concentration in mouse at 50 mg/kg, po measured at 0.5 hrs; format: ADME, organism-based
[28] = Half-life in mouse at 50 mg/kg, po; format: ADME, organism-based; details: in vivo
[29] = AUC (infinity) in mouse at 10 mg/kg, po; format: ADME, organism-based; set-up: route oral, time infinity, dose 10 mg/kg; details: in vivo
[30] = AUC (infinity) in rat at 10 mg/kg, po; format: ADME, organism-based; set-up: time infinity, route oral, dose 10 mg/kg; details: in vivo
[31] = Oral bioavailability in mouse at 50 mg/kg; format: ADME, organism-based; details: in vivo
HeLa [32] = assay: Cytotoxicity against human HeLa MKYP cells assessed as cell death at 25 uM treated with FCCP/oliogmycin and measured DAPI staining method assay relative to control; format: toxicity, cell-based
[33] = Initial plasma concentration in rat at 10 mg/kg, po; format: ADME, organism-based; details: in vivo
[34] = AUC (infinity) in mouse at 1 mg/kg, iv; format: ADME, organism-based; set-up: route intravenous, time infinity, dose 1 mg/kg; details: in vivo
[35] = Kidney concentration in mouse at 50 mg/kg, po measured at 1 hr; format: ADME, organism-based; details: read-out: Drug uptake
[36] = Brain concentration in mouse at 50 mg/kg, po measured at 1 hr; format: ADME, organism-based; details: read-out: Drug uptake
[37] = Observed AUC in mouse 50 mg/kg, po; format: ADME, organism-based; set-up: dose 50 mg/kg; details: in vivo
[38] = Apparent volume of distribution in mouse at 10 mg/kg, po; format: ADME, organism-based; details: in vivo
[39] = Kidney concentration in mouse at 10 mg/kg, po measured at 2 hrs; format: ADME, organism-based; details: read-out: Drug uptake
[40] = Brain concentration in mouse at 50 mg/kg, po measured at 2 hrs; format: ADME, organism-based; details: read-out: Drug uptake
[41] = AUC (infinity) in rat at 1 mg/kg, iv; format: ADME, organism-based; set-up: route intravenous, time infinity, dose 1 mg/kg; details: in vivo
[42] = Kidney concentration in mouse at 50 mg/kg, po measured at 0.5 hrs; format: ADME, organism-based; details: read-out: Drug uptake
[43] = Brain concentration in mouse at 10 mg/kg, po measured at 0.5 hrs; format: ADME, organism-based; details: read-out: Drug uptake
[44] = MRT (infinity) in mouse at 1 mg/kg, iv; format: ADME, organism-based; details: in vivo
[45] = Plasma concentration in mouse at 50 mg/kg, po measured at 1 hr; format: ADME, organism-based
[46] = Plasma concentration in mouse at 50 mg/kg, po measured at 2 hrs; format: ADME, organism-based
[47] = Brain concentration in mouse at 50 mg/kg, po measured at 0.5 hrs; format: ADME, organism-based; details: read-out: Drug uptake
[48] = Half-life in rat at 10 mg/kg, po; format: ADME, organism-based; details: in vivo
[49] = Induction of mitophagy in human HeLa MKYP cells treated at 6.3 uM with FCCP/oligomycin for 6 hrs and measured by FACS analysis relative to control; format: functional; details: 6 h, 6.3 µM
[50] = Brain concentration in mouse at 10 mg/kg, po measured at 1 hr; format: ADME, organism-based; details: read-out: Drug uptake
[51] = Oral bioavailability in mouse at 10 mg/kg; format: ADME, organism-based; details: in vivo

In the case of FC(F)(F)c1cc2c(NC3CCCc4ccccc43)ncnc2[nH]1 (stereo in doubt), the EC50 [1] is reported as 440 nM, the concentration at 0.5 h [2] is reported as 1050 ng/g and the “%AUCextra” value [3] is reported as 1.1%. The concentration at 2 h [4] was 7480 ng/g, the t1/2 [5] was 2 h and the AUC [6] was 35.5 µM·h. For the same molecule, the concentration at 1 h [7] was 1290 ng/g, the Ratio [8] was 40.02 and the Cmax [9] was 1080 nM. For the same molecule, the concentration at 0.5 h [10] was 372 ng/g, the Activity (HeLa [11]) was 2.1% and the AUC [12] was 1.4 µM·h. It also gave an AUC [13] of 1.5 µM·h, a Cmax [14] of 9800 nM and a concentration at 2 h [15] of 435 ng/g. For the same molecule, the Vz [16] was 2.2 L/kg, the MRT inf [17] was 2 h and the concentration at 1 h [18] was 276 ng/g. The concentration at 2 h [19] was 146 ng/g, the “%AUCextra” value [20] was 2.5% and the Activity (HeLa [21]) was 2.59%. It also gave an MRT inf [22] of 17.4 h, a Cmax [23] of 1450 nM and a C0 [24] of 0.5 ng/mL. It also gave a solubility [25] of 1 µM (≈ 0.332 µg/mL), an AUC [26] of 2.6 µM·h and a concentration at 0.5 h [27] of 1900 ng/g. For the same molecule, the half-life [28] was 3.9 h, the AUC [29] was 803.3 ng·h/mL and the AUC [30] was 7348.4 ng·h/mL. The bioavailability [31] was 37.9%, the Activity (HeLa [32]) was 10.7% and the C0 [33] was 2.6 ng/mL. It also gave an AUC(0-inf) [34] of 487 ng·h/mL, a concentration at 1 h [35] of 11500 ng/g and a concentration at 1 h [36] of 6370 ng/g. For the same molecule, the AUC [37] was 27.4 µM·h, the Vz [38] was 5.4 L/kg and the concentration at 2 h [39] was 893 ng/g. It also gave a concentration at 2 h [40] of 3980 ng/g, an AUC(0-inf) [41] of 838 ng·h/mL and a concentration at 0.5 h [42] of 6430 ng/g. It also gave a concentration at 0.5 h [43] of 526 ng/g, an MRT inf [44] of 0.7 h and a concentration at 1 h [45] of 2080 ng/g. The concentration at 2 h [46] was 1420 ng/g, the concentration at 0.5 h [47] was 3340 ng/g and the t1/2 [48] was 3.7 h. It also gave an Activity [49] of 55.5%, a concentration at 1 h [50] of 737 ng/g and a bioavailability [51] of 17.4%.
